Drawing on patent US12209081B2 (Katholieke Universiteit Leuven, priority 2020, dated 2025), this text covers IC50 for 35 compounds.

Broadly, the IC50 is the concentration needed to halve the response being measured. The low end stands for higher potency, the high end for lower potency.

Molecules are shown by their SMILES.

This assay deals with mouse TRPM3α2 (mTRPM3) ion channel (Mus musculus (Mouse), UniProt J9SQF3). Description: TRPM3 ion channel driven Ca2+ uptake, Fluo-4 AM assay, mTRPM3alpha2 overexpressing flip-in HEK293 cells stimulated with pregnenolone sulfate. In kind it is cell-based. An outline of the steps:
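Read-out is Ca2+ influx via Fluo-4 AM fluorescence at 485/535 nm, taken right after seeding ~2000 cells/well onto compound with 50 μM PS. Inhibition computed from RFU between vehicle-stimulated and positive-control-inhibitor wells; cells were mTRPM3α2-overexpressing flip-in HEK293.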

[1] abbreviates: PS (50 μM) stimulated, cpds. 667-751.
The mark [2] stands for this setting: PS (50 μM) stimulated, cpd 001-199.
Setting [3] is: PS (50 μM) stimulated, cpds. 400-499.
Setting [4] is: PS (50 μM) stimulated, cpds. 500-599.
[5] abbreviates: PS (50 μM) stimulated, cpds. 608-666.

mouse TRPM3α2 (mTRPM3) ion channel, sequence (J9SQF3 other isoform, or with tags, fused parts or gaps): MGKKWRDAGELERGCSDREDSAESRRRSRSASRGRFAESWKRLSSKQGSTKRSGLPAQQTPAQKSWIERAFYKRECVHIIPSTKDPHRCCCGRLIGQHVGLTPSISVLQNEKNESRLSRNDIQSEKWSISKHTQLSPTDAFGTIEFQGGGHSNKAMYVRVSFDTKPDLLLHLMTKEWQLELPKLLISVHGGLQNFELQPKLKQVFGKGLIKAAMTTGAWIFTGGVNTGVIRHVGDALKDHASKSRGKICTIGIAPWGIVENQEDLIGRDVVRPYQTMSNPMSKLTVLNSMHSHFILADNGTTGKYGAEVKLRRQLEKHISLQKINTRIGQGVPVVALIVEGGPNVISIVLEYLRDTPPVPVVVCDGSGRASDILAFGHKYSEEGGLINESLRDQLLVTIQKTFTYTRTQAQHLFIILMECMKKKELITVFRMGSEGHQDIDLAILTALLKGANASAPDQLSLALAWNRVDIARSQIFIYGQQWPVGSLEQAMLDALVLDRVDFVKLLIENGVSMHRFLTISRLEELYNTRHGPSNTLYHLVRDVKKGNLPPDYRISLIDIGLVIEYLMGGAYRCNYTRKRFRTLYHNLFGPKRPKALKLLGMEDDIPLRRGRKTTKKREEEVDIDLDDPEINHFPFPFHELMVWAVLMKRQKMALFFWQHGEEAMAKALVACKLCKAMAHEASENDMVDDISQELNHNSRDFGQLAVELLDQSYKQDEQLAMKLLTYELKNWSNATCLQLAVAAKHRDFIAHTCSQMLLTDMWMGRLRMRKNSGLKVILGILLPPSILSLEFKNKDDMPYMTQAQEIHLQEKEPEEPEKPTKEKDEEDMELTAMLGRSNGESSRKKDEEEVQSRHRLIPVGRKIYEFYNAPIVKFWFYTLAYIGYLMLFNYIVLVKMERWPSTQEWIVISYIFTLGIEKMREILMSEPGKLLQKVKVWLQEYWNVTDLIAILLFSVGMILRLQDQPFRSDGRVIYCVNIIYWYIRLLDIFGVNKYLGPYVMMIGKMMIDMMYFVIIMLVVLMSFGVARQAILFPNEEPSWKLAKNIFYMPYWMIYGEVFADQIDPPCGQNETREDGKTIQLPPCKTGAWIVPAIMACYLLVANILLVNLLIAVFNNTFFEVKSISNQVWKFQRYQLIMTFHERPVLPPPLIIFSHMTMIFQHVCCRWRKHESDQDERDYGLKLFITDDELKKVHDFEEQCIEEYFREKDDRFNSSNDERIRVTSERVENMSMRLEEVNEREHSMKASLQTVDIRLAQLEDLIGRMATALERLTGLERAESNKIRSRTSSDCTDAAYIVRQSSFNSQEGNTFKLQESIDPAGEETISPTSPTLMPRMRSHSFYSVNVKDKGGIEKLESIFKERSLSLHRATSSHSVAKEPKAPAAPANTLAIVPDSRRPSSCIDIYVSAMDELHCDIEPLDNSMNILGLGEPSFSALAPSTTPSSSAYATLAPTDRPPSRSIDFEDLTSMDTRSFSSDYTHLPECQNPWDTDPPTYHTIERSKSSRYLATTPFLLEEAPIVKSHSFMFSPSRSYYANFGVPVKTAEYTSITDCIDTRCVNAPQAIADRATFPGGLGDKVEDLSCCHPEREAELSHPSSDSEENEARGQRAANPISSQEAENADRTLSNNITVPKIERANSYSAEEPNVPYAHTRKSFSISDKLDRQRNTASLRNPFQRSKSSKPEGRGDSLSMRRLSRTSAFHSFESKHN

In the case of `Cc1ncc(COc2ccc3oc(C)c(C(=O)N[C@@H](CO)C(N)=O)c3c2)cn1` [compound 708, (S)-N-(1-Amino-3-hydroxy-1-oxopropan-2-yl)-2-methyl-5-((2-methylpyrimidin-5-yl)methoxy)benzofuran-3-carboxamide], the IC50 under setting [1] is under 1 µM. Under setting [2], `Cc1ncsc1COc1ccc2oc(C)c(C(=O)NC3(CCO)CCOC3)c2c1` (single isomer, unassigned) [121-En 1, N-(3-(2-hydroxyethyl)tetrahydrofuran-3-yl)-2-methyl-5-((4-methylthiazol-5-yl)methoxy)benzo-furan-3-carboxamide] yielded a half-inhibitory concentration (IC50) of under 1 µM.

Where the note is “PS 50 μM, cpds 300-399”, `Cc1ncsc1COc1cc2c(C(=O)NC3(CO)CC3)c(C)oc2cc1F` [compound 361, 6-fluoro-N-(1-(hydroxymethyl)cyclopropyl)-2-methyl-5-((4-methylthiazol-5-yl)methoxy)benzofuran-3-carboxamide] gave an IC50 of under 1 µM.

`Cc1oc2ccc(OCc3cccnc3N(C)C)cc2c1C(=O)N[C@@H](CO)C(N)=O` [compound 297, (S)-N-(1-amino-3-hydroxy-1-oxopropan-2-yl)-5-((2-(dimethylamino)pyridin-3-yl)methoxy)-2-methylbenzofuran-3-carboxamide] registered an IC50 (PS 50 μM, cpds 200-299) of under 1 µM.

`Cc1oc2ccc(OCc3cccnc3O)cc2c1C(=O)NC1(CO)CC1` [compound 420, N-(1-(hydroxymethyl)cyclopropyl)-5-((2-hydroxypyridin-3-yl)methoxy)-2-methylbenzofuran-3-carboxamide]: under setting [3], the IC50 was under 1 µM. As to `Cc1ncsc1COc1ccc2oc(C)c(C(=O)NC3(CO)COC3)c2c1F` [compound 328, 4-fluoro-N-(3-(hydroxymethyl)oxetan-3-yl)-2-methyl-5-((4-methylthiazol-5-yl)methoxy)benzofuran-3-carboxamide], the IC50 (PS 50 μM, cpds 300-399) was under 1 µM.

On to `Cc1cc(COc2ccc3oc(C)c(C(=O)N[C@@H](CO)C(N)=O)c3c2)no1` [compound 289, (S)-N-(1-amino-3-hydroxy-1-oxopropan-2-yl)-2-methyl-5-((5-methylisoxazol-3-yl)methoxy)benzofuran-3-carboxamide], for which, where the note is “PS 50 μM, cpds 200-299”, the IC50 was under 1 µM.

In the case of `COC[C@H](NC(=O)c1c(C)oc2ccc(OCc3cnc(C)s3)cc12)C(N)=O` [compound 303, (S)-N-(1-amino-3-methoxy-1-oxopropan-2-yl)-2-methyl-5-((2-methylthiazol-5-yl)methoxy)benzofuran-3-carboxamide], the IC50 (PS 50 μM, cpds 300-399) is under 1 µM.

On to `COc1ncccc1COc1ccc2oc(C)c(C(=O)NC3(CO)CCC3)c2c1` [compound 417, N-(1-(hydroxymethyl)cyclobutyl)-5-((2-methoxypyridin-3-yl)methoxy)-2-methylbenzofuran-3-carboxamide], for which the IC50 under setting [3] is under 1 µM. Under setting [4], `Cc1ncsc1COc1ccc2oc(C)c(C(=O)N(C)C3(C(N)=O)COC3)c2c1` [compound 589, N-(3-carbamoyloxetan-3-yl)-N,2-dimethyl-5-((4-methylthiazol-5-yl)methoxy)benzofuran-3-carboxamide] gave an IC50 of 1 to 20 µM.

Consider `Cc1ncsc1COc1ccc2oc(C)c(C(=O)NC3(CO)CC3)c2c1` [compound 139, N-(1-(hydroxymethyl)cyclopropyl)-2-methyl-5-((4-methylthiazol-5-yl)methoxy)benzofuran-3-carboxamide], for which, under setting [2], the IC50 is under 1 µM. Consider `Cc1oc2ccc(OCc3cccnc3C(F)(F)F)cc2c1C(=O)N[C@@H]1C(=O)NC[C@H]1O` [compound 390, N-((3S,4R)-4-hydroxy-2-oxopyrrolidin-3-yl)-2-methyl-5-((2-(trifluoromethyl)pyridin-3-yl)methoxy)benzofuran-3-carboxamide], for which the IC50 (PS 50 μM, cpds 300-399) was under 1 µM. Compound `Cc1ncsc1COc1ccc2oc(C)c(C(=O)n3ccc(N)n3)c2c1` [compound 192, (3-amino-1H-pyrazol-1-yl) (2-methyl-5-((4-methylthiazol-5-yl)methoxy)benzofuran-3-yl) -methanone] registered an IC50 under setting [2] of over 20 µM. For `Cc1ncsc1COc1ccc2oc(C)c(C(=O)NC(C)(C)CCO)c2c1` [compound 652, N-(4-hydroxy-2-methylbutan-2-yl)-2-methyl-5-((4-methylthiazol-5-yl)methoxy)benzofuran-3-carboxamide], the IC50 under setting [5] is under 1 µM. As for `Cc1oc2ccc(OCc3cncs3)cc2c1C(=O)N[C@H]1CCNC1` [compound 024, (S)-2-methyl-N-(pyrrolidin-3-yl)-5-(thiazol-5-ylmethoxy)benzofuran-3-carboxamide], the IC50 under setting [2] was under 1 µM. Regarding `COc1ncccc1COc1ccc2oc(C)c(C(=O)NC3(C(N)=O)COC3)c2c1` [compound 586, N-(3-carbamoyloxetan-3-yl)-5-((2-methoxypyridin-3-yl)methoxy)-2-methylbenzofuran-3-carboxamide], the IC50 under setting [4] was under 1 µM. The same measure, in the same setting: as for `Cc1ncsc1COc1ccc2oc(C)c(C(=O)NC3CCNCC3(F)F)c2c1F` (single isomer, unassigned) [cpd 562-En 1], the figure is under 1 µM. In turn, `Cc1oc2ccc(OCc3cccnc3O)cc2c1C(=O)NC1CNCCC1(F)F` (single isomer, unassigned) [cpd 637-En 1] returned an IC50 under setting [5] of under 1 µM. `Cc1ccc(COc2ccc3oc(C(F)F)c(C(=O)N[C@@H](CO)C(N)=O)c3c2)cn1` [compound 743, (S)-N-(1-Amino-3-hydroxy-1-oxopropan-2-yl)-2-(difluoromethyl)-5-((6-methylpyridin-3-yl)methoxy)benzofuran-3-carboxamide] registered a half-maximal inhibitory concentration (IC50) under setting [1] of under 1 µM. Under setting [2], `Cc1ncsc1COc1ccc2oc(C)c(C(=O)Nc3cn[nH]c3)c2c1` [compound 150, 2-methyl-5-((4-methylthiazol-5-yl)methoxy)-N-(1H-pyrazol-4-yl)benzofuran-3-carboxamide] gave an IC50 of under 1 µM. `O=C(NC1(CO)CCOCC1)c1c(C(F)F)oc2ccc(OCc3cccnc3O)cc12` [compound 311, 2-(difluoromethyl)-N-(4-(hydroxymethyl)tetrahydro-2H-pyran-4-yl)-5-((2-oxo-1,2-dihydropyridin-3-yl)methoxy)benzofuran-3-carboxamide] displayed an IC50 (PS 50 μM, cpds 300-399) of under 1 µM. In the case of `Cc1cc(COc2ccc3oc(C)c(C(=O)NC4CCNCC4(F)F)c3c2)no1` (single isomer, unassigned) [cpd 553-En 2], the IC50 under setting [4] fell in the range of 1 to 20 µM. Consider `Cc1ncccc1COc1ccc2oc(C)c(C(=O)NC3(CO)CCOCC3)c2c1` [compound 611, N-(4-(hydroxymethyl)tetrahydro-2H-pyran-4-yl)-2-methyl-5-((2-methylpyridin-3-yl)methoxy)benzofuran-3-carboxamide], for which the IC50 under setting [5] is under 1 µM.

Turning to `COc1ncccc1COc1ccc2oc(C)c(C(=O)NC3CNCC3(F)F)c2c1` (centres unmarked) [compound 663, N-(4,4-difluoropyrrolidin-3-yl)-5-((2-methoxypyridin-3-yl)methoxy)-2-methylbenzofuran-3-carboxamide], the IC50 under setting [5] was under 1 µM.

The compound `CNC(=O)[C@H](CO)NC(=O)c1c(C)oc2ccc(OCc3scnc3C)cc12` [compound 306, (S)-N-(3-hydroxy-1-(methylamino)-1-oxopropan-2-yl)-2-methyl-5-((4-methylthiazol-5-yl)methoxy)benzofuran-3-carboxamide] yielded an IC50 (PS 50 μM, cpds 300-399) of under 1 µM.

For the compound `Cc1oc2ccc(OCc3ccnn3CC(F)F)cc2c1C(=O)N[C@@H](CO)C(N)=O` [compound 295, (S)-N-(1-amino-3-hydroxy-1-oxopropan-2-yl)-5-((1-(2,2-difluoroethyl)-1H-pyrazol-5-yl)methoxy)-2-methylbenzofuran-3-carboxamide], the IC50 (PS 50 μM, cpds 200-299) was under 1 µM. In turn, `Cc1oc2ccc(OCc3ccc(F)cn3)cc2c1C(=O)NC(C)(CO)C(N)=O` (single isomer, unassigned) [cpd 739-En 1] displayed an IC50 under setting [1] of under 1 µM. In the case of `Cc1oc2ccc(OCc3cccc(O)n3)cc2c1C(=O)NC1(CO)CCOCC1` [compound 630, N-(4-(hydroxymethyl)tetrahydro-2H-pyran-4-yl)-5-((6-hydroxypyridin-2-yl)methoxy)-2-methylbenzofuran-3-carboxamide], under setting [5], the IC50 is over 20 µM. In the case of `Cc1ncsc1COc1ccc2oc(C3CC3)c(C(=O)NC3(CO)CCOCC3)c2c1` [compound 314, 2-cyclopropyl-N-(4-(hydroxymethyl)tetrahydro-2H-pyran-4-yl)-5-((4-methylthiazol-5-yl)methoxy)benzofuran-3-carboxamide], where the note is “PS 50 μM, cpds 300-399”, the IC50 was under 1 µM.

Under setting [2], `Cc1oc2ccc(OCc3cccnc3C(F)(F)F)cc2c1C(=O)NC(C)(C)CO` [compound 109, N-(1-hydroxy-2-methylpropan-2-yl)-2-methyl-5-((2-(trifluoromethyl)pyridin-3-yl)methoxy)benzofuran-3-carboxamide] came in with an IC50 of under 1 µM. Take `Cc1ncc(COc2ccc3oc(C)c(C(=O)NC4(CO)CCNC4)c3c2)s1` (single isomer, unassigned) [530-En 1, N-(3-(hydroxymethyl)pyrrolidin-3-yl)-2-methyl-5-((2-methylthiazol-5-yl)methoxy)benzofuran-3-carboxamide]: the IC50 under setting [4] lay within 1 to 20 µM.

In turn, `Cc1oc2ccc(OCc3ccnn3C)cc2c1C(=O)NC1CCNCC1(F)F` (single isomer, unassigned) [cpd 543-En 1] displayed an IC50 under setting [4] of under 1 µM. As for `Cc1ncc(COc2ccc3oc(C)c(C(=O)NC(CS(C)(=O)=O)C(N)=O)c3c2)s1` (single isomer, unassigned) [cpd 726-En 1], the IC50 under setting [1] is under 1 µM. For the compound `COc1ncccc1COc1ccc2oc(C)c(C(=O)NC3(CO)CCOC3)c2c1` (single isomer, unassigned) [cpd 536-En 1], under setting [4], the IC50 was under 1 µM.

`Cc1ncsc1COc1ccc2oc(C)c(C(=O)N[C@@H](C(N)=O)C(C)C)c2c1` [compound 273, (R)-N-(1-amino-3-methyl-1-oxobutan-2-yl)-2-methyl-5-((4-methylthiazol-5-yl)methoxy)benzofuran-3-carboxamide] had an IC50 (PS 50 μM, cpds 200-299) of under 1 µM.
